Reference: patent publication US10030016B2 (Sunesis Pharmaceuticals, Inc., priority 2009, dated 2018)
Structures can show the parent of a compound that is named as a salt. Where two headings read alike, the source gives them in different places.

Columns and labels:
PDK1 = PDK1 (Homo sapiens (Human), UniProt O15530); assay: PDK1 kinase assay (coupled PDK1/AKT/FAM-crosstide assay, IMAP fluorescence polarization); format: biochemical
In short: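 Coupled cascade: 0.75 nM PDK1 (51-359) → 10 nM AKT2 (140-467-PIFtide) → 100 nM FAM-crosstide. ATP 40 μM, 25° C, 30 min. IMAP FP (ex 485/em 530), 2 h binding. ΔmP vs conc, 4-param fit.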

[1] = tested on: phospho-akt (Thr308) in PC-3 cells; assay: Inhibition of phospho-akt (Thr308) in PC-3 cells, MSD phospho-akt 308 ELISA kit; format: cell-based; conditions: 2 hours, no serum, read-out: EC50
In short: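 Electrochemiluminescent MSD ELISA of Thr308-phosphorylated Akt after a 2 h serum-free compound exposure of PC-3 cells (15,000/well, plated overnight). Controls: DMSO (high), 5 μM wortmannin (low). Lysate binding overnight at 4 °C; detection antibody 1 h at room temperature.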

[2] = Homo sapiens, inhibition of P308 Akt in PC-3 cells using MSD
[3] = inhibition of phospo-PDK1 in vitro
[4] = Homo sapiens, inhibition of P308 Akt in PC-3 cells, MSD

PDK1, sequence (O15530 51-359): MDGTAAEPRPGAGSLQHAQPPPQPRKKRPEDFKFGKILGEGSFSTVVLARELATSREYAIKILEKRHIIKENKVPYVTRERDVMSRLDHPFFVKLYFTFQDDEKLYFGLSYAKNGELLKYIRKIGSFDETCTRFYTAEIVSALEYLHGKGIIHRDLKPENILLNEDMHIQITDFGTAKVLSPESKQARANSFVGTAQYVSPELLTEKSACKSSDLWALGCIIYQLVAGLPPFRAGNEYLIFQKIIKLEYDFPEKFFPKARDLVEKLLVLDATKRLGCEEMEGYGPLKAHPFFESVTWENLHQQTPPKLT

Row | Structure (SMILES) | IC50 (PDK1; inhibition of PDK1 in vitro) [nM] | EC50 [1, 2] [nM] | IC50 (PDK1; [3]) [nM] | EC50 [1, 4] [nM] | also measured
1 | O=C(NCc1ccc(F)c(F)c1)c1cc(C(F)(F)F)cnc1NCc1ccc(-c2cnc3[nH]c(=O)[nH]c3c2)cc1 [Example 123, N-(3,4-difluorobenzyl)-2-(4-(2-oxo-2,3-dihydro-1H-imidazo[4,5-b]pyridin-6-yl)benzylamino)-5-(trifluoromethyl) nicotinamide] | < 100 | < 1000 |  |  | 
2 | C[C@H](NC(=O)c1nc(C#N)cnc1NCc1ccc(-c2ccc3c(N)ncnn23)cc1)c1ccc(F)c(F)c1 [Example 181, 3-[4-(4-Amino-pyrrolo [2,1-f][1,2,4]triazin-7-yl)-benzylamino]-6-cyano-pyrazine-2-carboxylic acid [(S)-1-(3,4-difluoro-phenyl)-ethyl]-amide] | < 100 | < 1000 |  |  | 
3 | Nc1ncnc2ccc(-c3ccc(CNc4ncc(C(=O)N5CCOCC5)cc4C(=O)NCc4ccc(F)c(F)c4)s3)cc12 [Example 7.24.6, 2-({[5-(4-aminoquinazolin-6-yl)thiophen-2-yl]methyl}amino)-N^3-(3,4-difluorobenzyl)-5-(morpholin-4-ylcarbonyl)pyridine-3-carboxamide] |  |  | < 100 | 1000 to 10000 | 
4 | CN(Cc1ccc(F)c(F)c1)C(=O)c1nc(C#N)cnc1NCc1ccc(-c2cnc3[nH]nc(N)c3c2)cc1 [Example 413, 3-(4-(3-amino-1H-pyrazolo[3,4-b]pyridin-5-yl)benzylamino)-6-cyano-N-(3,4-difluorobenzyl)-N-methylpyrazine-2-carboxamide] | < 100 | < 1000 |  |  | 
5 | NCCCc1nc(-c2ccc(CNc3ncc(C(F)(F)F)cc3C(=O)Nc3ccc(F)cc3)cc2)cnc1N [Example 73, 2-{4-[5-Amino-6-(3-amino-propyl)-pyrazin-2-yl]-benzyl-amino}-N-(4-fluoro-phenyl)-5-trifluoromethyl-nicotinamide] | < 100 | < 1000 |  |  | 
6 | C[C@H](NC(=O)c1nc(C#N)cnc1NCc1ccc(-c2cnc(N)c(-c3cccc(N)c3)n2)cc1)c1ccc(F)c(F)c1 [Example 238, 3-{4-[5-Amino-6-(3-amino-phenyl)-pyrazin-2-yl]-benzylamino}-6-cyano-pyrazine-2-carboxylic acid [(S)-1-(3,4-difluoro-phenyl)-ethyl]-amide] | < 100 | < 1000 |  |  | 
7 | CC(C)Oc1cc(CNc2ncccc2C(=O)NCc2cccc(F)c2)cc(-c2c[nH]c3ncc(C(=O)NC4CC4)cc23)c1 [Example 4.1.4, N-cyclopropyl-3-{3-[({3-[(3-fluorobenzyl)carbamoyl]pyridin-2-yl}amino)methyl]-5-(propan-2-yloxy)phenyl}-1H-pyrrolo [2,3-b]pyridine-5-carboxamide] |  |  | < 100 | 1000 to 10000 | 
8 | CC(C)(N)COc1nc(-c2ccc(CNc3ncc(C(F)(F)F)cc3C(=O)Nc3ccc(F)cc3)cc2)cnc1N [Example 200, 2-{4-[5-Amino-6-(2-amino-2-methyl-propoxy)-pyrazin-2-yl]-benzylamino}-N-(4-fluoro-phenyl)-5-trifluoromethyl-nicotinamide] | < 100 | 1000 to 10000 |  |  | 
9 | CC(C)Oc1cc(CNc2ncccc2C(=O)N(C)c2cccc(F)c2)cc(-c2c[nH]c3ncc(C(=O)NC4CC4)cc23)c1 [Example 4.1.8, N-cyclopropyl-3-{3-[({3-[(3-fluorophenyl)(methyl)carbamoyl]pyridin-2-yl}amino)methyl]-5-(propan-2-yloxy)phenyl}-1H-pyrrolo[2,3-b] pyridine-5-carboxamide] |  |  | > 5000 | 1000 to 10000 | 
10 | Cc1nc2cc(-c3ccc(CNc4ncc(C#N)cc4C(=O)N[C@@H](C)c4ccc(F)cc4)cc3)cnc2[nH]1 [Example 138, (S)-5-cyano-N-(1-(4-fluorophenyl)ethyl)-2-(4-(2-methyl-3H-imidazo[4,5-b]pyridin-6-yl)benzylamino) nicotinamide] | < 100 | < 1000 |  |  | 
11 | Nc1n[nH]c2ncc(-c3ccc(CNc4ncc(C(F)(F)F)cc4C(=O)Nc4ccncn4)cc3)cc12 [Example 303, 2-(4-(3-amino-1H-pyrazolo [3,4-b]pyridin-5-yl)benzylamino)-N-(pyrimidin-4-yl)-5-(trifluoromethyl)nicotinamide] | < 100 | 1000 to 10000 |  |  | 
12 | C[C@H](NC(=O)c1cc(C#N)cnc1NCc1ccc(-c2cn(S(=O)(=O)c3ccccc3)nc2N)cc1)c1ccc(F)cc1 [Example 143, (S)-2-(4-(3-amino-1-(phenylsulfonyl)-1H-pyrazol-4-yl)benzylamino)-5-cyano-N-(1-(4-fluorophenyl)ethyl) nicotinamide] | > 5000 | > 10000 |  |  | 
13 | Nc1ncnc2ccc(-c3ccc(CNc4nccc(C(F)(F)F)c4C(=O)NCc4ccc(F)c(F)c4)s3)cc12 [Example 8.12.4, 2-({[5-(4-aminoquinazolin-6-yl)thiophen-2-yl]methyl}amino)-N-(3,4-difluorobenzyl)-4-(trifluoromethyl)pyridine-3-carboxamide] |  |  | > 5000 | 1000 to 10000 | 
14 | C[C@H](NC(=O)c1cc(C#N)cnc1NCc1ccc(-c2cnc(N)c(C#N)c2)cc1)c1ccc(F)cc1 [Example 115, (S)-2-(4-(6-amino-5-cyanopyridin-3-yl)benzylamino)-5-cyano-N-(1-(4-fluorophenyl)ethyl) nicotinamide] | < 100 | > 10000 |  |  | 
15 | Nc1ncc(-c2ccc(CNc3ncc(C(F)(F)F)cc3C(=O)Nc3ccc(F)cc3)cc2)nc1N1CCNCC1 [Example 193, 2-[4-(3′-Amino-3,4,5,6-tetrahydro-2H-[1,2′]bipyrazinyl-6′-yl)-benzylamino]-N-(4-fluoro-phenyl)-5-trifluoromethyl-nicotinamide] | < 100 | 1000 to 10000 |  |  | 
16 | C[C@H](NC(=O)c1cc(C#N)cnc1N[C@H](CC(=O)N(C)C)c1ccc(-c2c[nH]c3ncnc(N)c23)cc1)c1ccc(F)cc1 [Example 48, 2-((R)-1-(4-(4 - amino-7H-pyrrolo[2,3-d]pyrimidin-5-yl)phenyl)-3-(dimethylamino)-3-oxopropylamino)-5-cyano-N-((S)-1-(4-fluorophenyl)ethyl)nicotinamide] | 100 to 1000 |  |  |  | EC50 ([1]; Homo sapiens, PC-3, 2 h, inhibition of P308 Akt in PC-3 cells using MSD): 1000 to 10000 nM
17 | C[C@H](NC(=O)c1cc(C#N)cnc1NCc1ccc(-c2cnc(N)c(C(=O)NCCCO)n2)cc1)c1ccc(F)cc1 [Example 209, (S)-3-amino-6-(4-((5-cyano-3-(1-(4-fluorophenyl)ethylcarbamoyl)pyridin-2-ylamino)methyl)phenyl)-N-(3-hydroxypropyl) pyrazine-2-carboxamide] | < 100 |  |  |  | EC50 ([1]; inhibition of P308 Akt in PC-3 cells using MSD): < 1000 nM
18 | O=C(NCc1ccc(F)c(F)c1)c1cccnc1NCCOc1ccc2c(c1)[nH]c1ncccc12 [Example 21, 2-(2-(9H-pyrido[2,3-b]indol-7-yloxy)ethylamino)-N-(3,4-difluorobenzyl)nicotinamide] |  |  | < 100 | 1000 to 10000 | 

The next lines start with results.

Row | IC50 (PDK1; inhibition of PDK1 in vitro) [nM] | EC50 [1, 2] [nM] | IC50 (PDK1; [3]) [nM] | EC50 [1, 4] [nM] | Structure (SMILES) | also measured
19 |  |  | < 100 | 1000 to 10000 | Nc1ncnc2ccc(-c3ccc(CNc4ncc(Br)nc4C(=O)NCc4ccc(F)c(F)c4)s3)cc12 [Ex. 10.2, 3-({[5-(4-aminoquinazolin-6-yl)thiophen-2-yl]methyl}amino)-6-bromo-N-(3,4-difluorobenzyl)pyrazine-2-carboxamide] | 
20 |  |  | < 100 | 1000 to 10000 | C[C@H](NC(=O)c1nccnc1NCc1ccc(-c2ccc3ncnc(N)c3c2)s1)c1ccc(F)cc1 [Example 3.70, 3-({[5-(4-aminoquinazolin-6-yl)thiophen-2-yl]methyl}amino)-N-[(1S)-1-(4-fluorophenyl)ethyl] pyrazine-2-carboxamide (TFA salt)] | 
21 |  |  | < 100 | 1000 to 10000 | O=C(NCc1ccc(F)c(F)c1)c1cccnc1NCc1cc(-c2c[nH]c3ncccc23)ccn1 [Example 18.1, 2-((4-(1H-pyrrolo[2,3-b]pyridin-3-yl)pyridin-2-ylmethyl)amino)-N-(3,4-difluorobenzyl)nicotinamide] | 
22 |  |  | < 100 | < 1000 | Nc1ncnc2ccc(-c3ccc(CNc4ncccc4C(=O)NCc4ccc(F)c(F)c4)s3)cc12 [Example 4.4, 2-(((5-(4-aminoquinazolin-6-yl)thiophen-2-yl)methyl)amino)-N-(3,4-difluorobenzyl)nicotinamide] | 
23 |  |  | 100 to 1000 | > 10000 | O=C(NCc1ccc(F)c(F)c1)c1cccnc1Nc1cccc(-c2cccn3c(=O)[nH]nc23)c1 [Example 17.3] | 
24 |  |  | 100 to 1000 | 1000 to 10000 | C[C@H](NC(=O)c1cccnc1NCc1ccc(-c2cc3c(N)ncnc3cn2)s1)c1ccc(F)c(F)c1 [Example 7.16, 2-({[5-(4-aminopyrido[3,4-d]pyrimidin-6-yl)thiophen-2-yl]methyl}amino)-N-[(1S)-1-(3,4-difluorophenyl)ethyl] pyridine-3-carboxamide] | 
25 |  |  | < 100 | 1000 to 10000 | CCN(CC)CCNC(=O)c1c(C)[nH]c(/C=C2\C(=O)Nc3cc(/C=C/CNc4ncccc4C(=O)NCc4ccc(F)c(F)c4)ccc32)c1C [Example 15.17, 2-((E)-3-((Z)-3-((4-(2-(diethylamino)ethylcarbamoyl)-3,5-dimethyl-1H-pyrrol-2-yl)methylene)-2-oxoindolin-6-yl)allylamino)-N-(3,4-difluorobenzyl)nicotinamide] | 
26 |  |  | > 5000 | > 10000 | O=C(NCc1ccc(F)c(F)c1)c1cccnc1NCc1ccccc1-c1c[nH]c2ncccc12 [Example 6.4, N-(3,4-difluorobenzyl)-2-{[2-(1H-pyrrolo[2,3-b]pyridin-3-yl)benzyl]amino}-pyridine-3-carboxamide] | 
